# Measurements as given in ChEMBL document CHEMBL3885881, “DrugMatrix”.
# Organism: Rattus norvegicus
# Assay: DrugMatrix - Regimen: Daily Repeat
# Format: toxicity, organism-based, Sprague-Dawley
# Design: regimen Daily Repeat, gender Male, age 6-8 weeks
# Conditions: in vivo, po, route oral GAVAGE; for ABSOLUTE BASOPHIL / ABSOLUTE EOSINOPHIL / ABSOLUTE LYMPHOCYTE / ABSOLUTE MONOCYTE / ABSOLUTE SEGMENTED NEUTROPHIL / BASOPHIL / EOSINOPHIL / ERYTHROCYTE COUNT / HEMATOCRIT / HEMOGLOBIN / LEUKOCYTE COUNT / LYMPHOCYTE / MEAN CORPUSCULAR HEMOGLOBIN / MEAN CORPUSCULAR HEMOGLOBIN CONCENTRATION / MEAN CORPUSCULAR VOLUME / MONOCYTE / NEUTROPHIL / NUCLEATED RED BLOOD CELLS / PLATELET COUNT: tissue Blood; for ALANINE AMINOTRANSFERASE / ALBUMIN / ALKALINE PHOSPHATASE / ASPARTATE AMINOTRANSFERASE / BLOOD UREA NITROGEN / CARBON DIOXIDE / CHLORIDE / CHOLESTEROL / CREATINE PHOSPHOKINASE / CREATININE / GLUCOSE / LACTATE DEHYDROGENASE / LIPASE / PHOSPHORUS / POTASSIUM / SODIUM / TOTAL BILIRUBIN / TOTAL PROTEIN / URIC ACID: tissue Plasma
# [1] = 0 mg/kg, 72 h, dose level Control, time 3 day, […]
# [2] = 0 mg/kg, 72 h, dose level Control, time 3 day, vehicle 100 % WATER
# [3] = 0 mg/kg, 120 h, dose level Control, time 5 day, […]
# [4] = 0 mg/kg, 120 h, dose level Control, time 5 day, vehicle 100 % WATER
# [5] = 20 mg/kg, 72 h, dose level Low, time 3 day, […]
# [6] = 20 mg/kg, 120 h, dose level Low, time 5 day, […]
compound,measurement,setting,value
Cn1cnc([N+](=O)[O-])c1Sc1ncnc2nc[nH]c12 [AZATHIOPRINE],ABSOLUTE BASOPHIL,[1],0 CELLS/uL
same,ABSOLUTE EOSINOPHIL,[1],0 CELLS/uL
same,ABSOLUTE LYMPHOCYTE,[1],7601 CELLS/uL
same,ABSOLUTE MONOCYTE,[1],354.33 CELLS/uL
same,ABSOLUTE SEGMENTED NEUTROPHIL,[1],744.67 CELLS/uL
same,BASOPHIL,[1],0%
same,EOSINOPHIL,[1],0%
same,ERYTHROCYTE COUNT,[1],5.03 x10E6/uL
same,HEMATOCRIT,[1],33.7%
same,HEMOGLOBIN,[1],13.43 G/DL
same,LEUKOCYTE COUNT,[1],8.7 x10E3/uL
same,LYMPHOCYTE,[1],86.33%
same,MEAN CORPUSCULAR HEMOGLOBIN,[1],26.7 pg
same,MEAN CORPUSCULAR HEMOGLOBIN CONCENTRATION,[1],39.83 G/DL
same,MEAN CORPUSCULAR VOLUME,[1],67 fL
same,MONOCYTE,[1],4.67%
same,NEUTROPHIL,[1],9%
same,NUCLEATED RED BLOOD CELLS,[1],0 /100WBC
same,PLATELET COUNT,[1],1151 x10E3/uL
same,ABSOLUTE EOSINOPHIL,[2],91.5 CELLS/uL
same,ABSOLUTE LYMPHOCYTE,[2],14108.83 CELLS/uL
same,ABSOLUTE MONOCYTE,[2],81 CELLS/uL
same,ABSOLUTE SEGMENTED NEUTROPHIL,[2],818.67 CELLS/uL
same,EOSINOPHIL,[2],0.67%
same,ERYTHROCYTE COUNT,[2],5.56 x10E6/uL
same,HEMATOCRIT,[2],34.5%
same,HEMOGLOBIN,[2],13.45 G/DL
same,LEUKOCYTE COUNT,[2],15.1 x10E3/uL
same,LYMPHOCYTE,[2],93%
same,MEAN CORPUSCULAR HEMOGLOBIN,[2],24.2 pg
same,MEAN CORPUSCULAR HEMOGLOBIN CONCENTRATION,[2],38.98 G/DL
same,MEAN CORPUSCULAR VOLUME,[2],62.07 fL
same,MONOCYTE,[2],0.5%
same,NEUTROPHIL,[2],5.83%
same,PLATELET COUNT,[2],1193.33 x10E3/uL
same,ALANINE AMINOTRANSFERASE,[1],97.67 u/L
same,ALBUMIN,[1],4.07 G/DL
same,ALKALINE PHOSPHATASE,[1],607.67 u/L
same,ASPARTATE AMINOTRANSFERASE,[1],101 u/L
same,BLOOD UREA NITROGEN,[1],13.33 mg/dL
same,CARBON DIOXIDE,[1],36 mmol/L
same,CHLORIDE,[1],99.67 MEQ/L
same,CHOLESTEROL,[1],75.67 mg/dL
same,CREATINE PHOSPHOKINASE,[1],279.67 u/L
same,CREATININE,[1],0.16 mg/dL
same,GLUCOSE,[1],164 mg/dL
same,LACTATE DEHYDROGENASE,[1],115 u/L
same,LIPASE,[1],12.67 u/L
same,PHOSPHORUS,[1],8.77 mg/dL
same,POTASSIUM,[1],5.79 MEQ/L
same,SODIUM,[1],142.83 MEQ/L
same,TOTAL BILIRUBIN,[1],0.27 mg/dL
same,TOTAL PROTEIN,[1],5.8 G/DL
same,URIC ACID,[1],0.67 mg/dL
same,ALANINE AMINOTRANSFERASE,[2],60.33 u/L
same,ALBUMIN,[2],4 G/DL
same,ALKALINE PHOSPHATASE,[2],334.83 u/L
same,ASPARTATE AMINOTRANSFERASE,[2],74.5 u/L
same,BLOOD UREA NITROGEN,[2],13.5 mg/dL
same,CARBON DIOXIDE,[2],30.33 mmol/L
same,CHLORIDE,[2],98.33 MEQ/L
same,CHOLESTEROL,[2],71.17 mg/dL
same,CREATINE PHOSPHOKINASE,[2],212 u/L
same,CREATININE,[2],0.21 mg/dL
same,GLUCOSE,[2],173.17 mg/dL
same,LACTATE DEHYDROGENASE,[2],101.5 u/L
same,LIPASE,[2],24.17 u/L
same,PHOSPHORUS,[2],10.87 mg/dL
same,POTASSIUM,[2],6.06 MEQ/L
same,SODIUM,[2],140.58 MEQ/L
same,TOTAL BILIRUBIN,[2],0.17 mg/dL
same,TOTAL PROTEIN,[2],5.9 G/DL
same,URIC ACID,[2],1.23 mg/dL
same,ABSOLUTE BASOPHIL,[3],0 CELLS/uL
same,ABSOLUTE EOSINOPHIL,[3],0 CELLS/uL
same,ABSOLUTE LYMPHOCYTE,[3],4426.33 CELLS/uL
same,ABSOLUTE MONOCYTE,[3],102.67 CELLS/uL
same,ABSOLUTE SEGMENTED NEUTROPHIL,[3],337.67 CELLS/uL
same,BASOPHIL,[3],0%
same,EOSINOPHIL,[3],0%
same,ERYTHROCYTE COUNT,[3],5.31 x10E6/uL
same,HEMATOCRIT,[3],32.5%
same,HEMOGLOBIN,[3],13.17 G/DL
same,LEUKOCYTE COUNT,[3],4.87 x10E3/uL
same,LYMPHOCYTE,[3],90.33%
same,MEAN CORPUSCULAR HEMOGLOBIN,[3],24.93 pg
same,MEAN CORPUSCULAR HEMOGLOBIN CONCENTRATION,[3],40.67 G/DL
same,MEAN CORPUSCULAR VOLUME,[3],61.33 fL
same,MONOCYTE,[3],2.33%
same,NEUTROPHIL,[3],7.33%
same,NUCLEATED RED BLOOD CELLS,[3],0.33 /100WBC
same,PLATELET COUNT,[3],848.33 x10E3/uL
same,ABSOLUTE EOSINOPHIL,[4],34.5 CELLS/uL
same,ABSOLUTE LYMPHOCYTE,[4],8181 CELLS/uL
same,ABSOLUTE MONOCYTE,[4],82.67 CELLS/uL
same,ABSOLUTE SEGMENTED NEUTROPHIL,[4],435.17 CELLS/uL
same,EOSINOPHIL,[4],0.5%
same,HEMATOCRIT,[4],33.83%
same,HEMOGLOBIN,[4],13.37 G/DL
same,LEUKOCYTE COUNT,[4],8.73 x10E3/uL
same,LYMPHOCYTE,[4],93.5%
same,MEAN CORPUSCULAR HEMOGLOBIN,[4],25.2 pg
same,MEAN CORPUSCULAR HEMOGLOBIN CONCENTRATION,[4],39.53 G/DL
same,MEAN CORPUSCULAR VOLUME,[4],63.73 fL
same,MONOCYTE,[4],1%
same,NEUTROPHIL,[4],5%
same,NUCLEATED RED BLOOD CELLS,[4],0 /100WBC
same,PLATELET COUNT,[4],1057.33 x10E3/uL
same,ALANINE AMINOTRANSFERASE,[3],59.67 u/L
same,ALBUMIN,[3],3.87 G/DL
same,ALKALINE PHOSPHATASE,[3],452 u/L
same,ASPARTATE AMINOTRANSFERASE,[3],81.33 u/L
same,BLOOD UREA NITROGEN,[3],13.67 mg/dL
same,CARBON DIOXIDE,[3],26.33 mmol/L
same,CHLORIDE,[3],103.67 MEQ/L
same,CHOLESTEROL,[3],65.67 mg/dL
same,CREATINE PHOSPHOKINASE,[3],355.33 u/L
same,CREATININE,[3],0.14 mg/dL
same,GLUCOSE,[3],171.33 mg/dL
same,LACTATE DEHYDROGENASE,[3],118 u/L
same,LIPASE,[3],11.33 u/L
same,PHOSPHORUS,[3],11.13 mg/dL
same,POTASSIUM,[3],5.18 MEQ/L
same,SODIUM,[3],143.17 MEQ/L
same,TOTAL BILIRUBIN,[3],0.2 mg/dL
same,TOTAL PROTEIN,[3],5.87 G/DL
same,URIC ACID,[3],0.63 mg/dL
same,ALANINE AMINOTRANSFERASE,[4],54.33 u/L
same,ALBUMIN,[4],4.07 G/DL
same,ALKALINE PHOSPHATASE,[4],308.67 u/L
same,ASPARTATE AMINOTRANSFERASE,[4],83.17 u/L
same,BLOOD UREA NITROGEN,[4],14 mg/dL
same,CARBON DIOXIDE,[4],34 mmol/L
same,CHLORIDE,[4],98 MEQ/L
same,CHOLESTEROL,[4],71.33 mg/dL
same,CREATINE PHOSPHOKINASE,[4],266.5 u/L
same,CREATININE,[4],0.27 mg/dL
same,GLUCOSE,[4],133 mg/dL
same,LACTATE DEHYDROGENASE,[4],127 u/L
same,LIPASE,[4],11.67 u/L
same,PHOSPHORUS,[4],10.6 mg/dL
same,POTASSIUM,[4],6.17 MEQ/L
same,SODIUM,[4],142.68 MEQ/L
same,TOTAL BILIRUBIN,[4],0.15 mg/dL
same,TOTAL PROTEIN,[4],6.03 G/DL
same,URIC ACID,[4],0.75 mg/dL
same,ABSOLUTE BASOPHIL,[5],0 CELLS/uL
same,ABSOLUTE EOSINOPHIL,[5],0 CELLS/uL
same,ABSOLUTE LYMPHOCYTE,[5],5839.67 CELLS/uL
same,ABSOLUTE MONOCYTE,[5],204 CELLS/uL
same,ABSOLUTE SEGMENTED NEUTROPHIL,[5],256.33 CELLS/uL
same,BASOPHIL,[5],0%
same,EOSINOPHIL,[5],0%
same,ERYTHROCYTE COUNT,[5],4.55 x10E6/uL
same,HEMATOCRIT,[5],29%
same,HEMOGLOBIN,[5],11.47 G/DL
same,LEUKOCYTE COUNT,[5],6.3 x10E3/uL
same,LYMPHOCYTE,[5],93%
same,MEAN CORPUSCULAR HEMOGLOBIN,[5],25.37 pg
same,MEAN CORPUSCULAR HEMOGLOBIN CONCENTRATION,[5],39.7 G/DL
same,MEAN CORPUSCULAR VOLUME,[5],64 fL
same,MONOCYTE,[5],3%
same,NEUTROPHIL,[5],4%
same,NUCLEATED RED BLOOD CELLS,[5],0.33 /100WBC
same,PLATELET COUNT,[5],1104.33 x10E3/uL
same,ALANINE AMINOTRANSFERASE,[5],61 u/L
same,ALBUMIN,[5],4.2 G/DL
same,ALKALINE PHOSPHATASE,[5],326.33 u/L
same,ASPARTATE AMINOTRANSFERASE,[5],82 u/L
same,BLOOD UREA NITROGEN,[5],14 mg/dL
same,CARBON DIOXIDE,[5],39.33 mmol/L
same,CHLORIDE,[5],106.33 MEQ/L
same,CHOLESTEROL,[5],92.67 mg/dL
same,CREATINE PHOSPHOKINASE,[5],229 u/L
same,CREATININE,[5],0.21 mg/dL
same,GLUCOSE,[5],156.33 mg/dL
same,LACTATE DEHYDROGENASE,[5],82.67 u/L
same,LIPASE,[5],11 u/L
same,PHOSPHORUS,[5],9.27 mg/dL
same,POTASSIUM,[5],5.07 MEQ/L
same,SODIUM,[5],137.8 MEQ/L
same,TOTAL BILIRUBIN,[5],0.1 mg/dL
same,TOTAL PROTEIN,[5],6.23 G/DL
same,URIC ACID,[5],0.5 mg/dL
same,ABSOLUTE BASOPHIL,[6],0 CELLS/uL
same,ABSOLUTE EOSINOPHIL,[6],0 CELLS/uL
same,ABSOLUTE LYMPHOCYTE,[6],5125.67 CELLS/uL
